Assay results taken from patent publication US12037324B2, “Biarylmethyl heterocycles” (Université de Montréal, priority 2016, dated 2024).
Blank lines part the entries; values can stand above or below the compound they belong to.

How the values were obtained:
[1] = target: T1, AGTR1 (Homo sapiens, UniProt P30556); experiment: DiscoveRx β-arrestin2 recruitment assay (enzyme complementation, Pathunter CHO-K1 AGTR1 β-arrestin cell line); assay type: cell-based; settings: for DiscoveRx β-arrestin2 Ymax (%): maximal response
T1 construct: host or cells: Pathunter CHO-K1 AGTR1 β-arrestin cell line (CHO-K1)
T1 sequence (P30556 1-359): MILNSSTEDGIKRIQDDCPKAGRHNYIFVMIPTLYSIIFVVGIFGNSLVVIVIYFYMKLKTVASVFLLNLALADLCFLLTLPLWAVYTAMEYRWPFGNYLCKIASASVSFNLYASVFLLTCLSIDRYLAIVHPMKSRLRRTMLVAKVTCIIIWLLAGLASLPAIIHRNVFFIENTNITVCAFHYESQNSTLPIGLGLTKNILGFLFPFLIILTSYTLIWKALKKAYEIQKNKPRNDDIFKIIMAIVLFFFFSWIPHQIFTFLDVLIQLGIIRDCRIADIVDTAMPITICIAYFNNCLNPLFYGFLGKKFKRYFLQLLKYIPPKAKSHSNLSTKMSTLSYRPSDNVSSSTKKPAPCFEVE
How it was run: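 Chemiluminescent enzyme-complementation read-out of β-arrestin2 recruitment to AGTR1 in engineered CHO-K1 cells after 90 min compound exposure at 37° C. Values are 4-parameter logistic EC50s in agonist mode, IC50s in antagonist mode, with efficacy relative to the maximal All response.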

[2] = target: T1, AGTR1; experiment: DiscoveRx IP1 accumulation assay (HTRF), agonist mode, Pathunter CHO-K1 AGTR1 β-arrestin cell line; assay type: cell-based; settings: for EC50: read-out: IP-1 EC50
How it was run: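 Agonist mode in CHO-K1 AGTR1 β-arrestin cells plated 14-16 h before; compounds at varying concentrations for 90 min at 37° C, IP1 accumulation read by HTRF (D2-conjugate and anti-IP1 cryptate, 20 min room temperature). EC50 from 4-parameter logistic fit; activity given as percentage of maximal AII effect.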

[3] = target: T2, hAT1R (Homo sapiens, UniProt P30556); experiment: BRET β-arrestin2 biosensor assay, higher receptor expression (hAT1R 5 ng/well), HEK293 cells; assay type: cell-based; settings: for EC50: High AT1R Expression
T2 sequence (P30556 1-359): T1 sequence (P30556 1-359)

[4] = target: T2, hAT1R; experiment: cell-based
[5] = DiscoveRx β-arrestin2 recruitment
[6] = Low AT1R Expression, read-out: BRET β-Arrestin2 Low AT1R Expression EC50
[7] = section of the 42nd table ending at r951, example numbering restarts after the DiscoveRx section, read-out: β-arrestin2 EC50

SMILES: CCCCC1=NC2(CCOC2)C(=O)N1Cc1ccc(-c2cc(-c3ccccc3F)ccc2-c2nnn[nH]2)cc1 (single isomer, unassigned) [Example 148]
EC50 [1, 5]: 103 nM | DiscoveRx β-arrestin2 Ymax (%) [1, 5]: 34.8% | IP-1 Ymax (%) [2]: 6.1% | BRET β-Arrestin2 High AT1R Expression Ymax (%) [3]: 72.8% | EC50 [3]: 90.4 nM | BRET β-Arrestin2 Low AT1R Expression Ymax (%) ([4]; Low AT1R Expression): 17.7% | EC50 [4, 6]: 141 nM

SMILES: CCCCC1=NC2(CCOC2)C(=O)N1Cc1ccc(-c2cc(-c3ccccc3F)ccc2-c2nnn[nH]2)cc1 (single isomer, unassigned) [Example 149]
EC50 [1, 5]: 38.9 nM | DiscoveRx β-arrestin2 Ymax (%) [1, 5]: 55.2% | IP-1 Ymax (%) [2]: 7.5% | EC50 [2]: 143 nM | BRET β-Arrestin2 High AT1R Expression Ymax (%) [3]: 85.7% | EC50 [3]: 24.1 nM | BRET β-Arrestin2 Low AT1R Expression Ymax (%) ([4]; Low AT1R Expression): 42.1% | EC50 [4, 6]: 82.7 nM

SMILES: CCc1nc2c(C)cc(C)nc2n1Cc1ccc(-c2cc(-c3ccccc3OC(F)(F)F)ccc2-c2nn[nH]n2)cc1 [Example 1]
EC50 [1, 5]: 15.5 nM | DiscoveRx β-arrestin2 Ymax (%) [1, 5]: 44.1% | IP-1 Ymax (%) [2]: 18.7% | EC50 [2]: 20.7 nM | BRET β-Arrestin2 High AT1R Expression Ymax (%) [3]: 86.9% | EC50 [3]: 7.2 nM | BRET β-Arrestin2 Low AT1R Expression Ymax (%) ([4]; Low AT1R Expression): 61.8% | EC50 [4, 6]: 29.5 nM

SMILES: CCc1nc2c(C)cc(C)nc2n1Cc1ccc(-c2cc(-c3ccccc3C(C)C)ccc2-c2nn[nH]n2)cc1 [Example 3]
EC50 [1, 5]: 21.2 nM | DiscoveRx β-arrestin2 Ymax (%) [1, 5]: 22.9% | IP-1 Ymax (%) [2]: 29.9% | EC50 [2]: 45600 nM | BRET β-Arrestin2 High AT1R Expression Ymax (%) [3]: 79.6% | EC50 [3]: 14.9 nM | BRET β-Arrestin2 Low AT1R Expression Ymax (%) ([4]; Low AT1R Expression): 30.6% | EC50 [4, 6]: 24.2 nM

SMILES: CCc1nc2c(C)cc(C)nc2n1Cc1ccc(-c2cc(-c3ccccc3OC)ccc2-c2nn[nH]n2)cc1 [Example 5]
EC50 [1, 5]: 14.5 nM | DiscoveRx β-arrestin2 Ymax (%) [1, 5]: 30.9% | IP-1 Ymax (%) [2]: 15.1% | EC50 [2]: 23.8 nM | BRET β-Arrestin2 High AT1R Expression Ymax (%) [3]: 76.2% | EC50 [3]: 16 nM | BRET β-Arrestin2 Low AT1R Expression Ymax (%) ([4]; Low AT1R Expression): 22.9% | EC50 [4, 6]: 12.1 nM

SMILES: CCc1nc2c(C)cc(C)nc2n1Cc1ccc(-c2cc(-c3ccc(C(=O)N(C)C)cc3)ccc2-c2nn[nH]n2)cc1 [Example 11]
EC50 [1, 5]: 9.9 nM | DiscoveRx β-arrestin2 Ymax (%) [1, 5]: 36.3% | IP-1 Ymax (%) [2]: 3.8% | EC50 [2]: 17.8 nM | BRET β-Arrestin2 High AT1R Expression Ymax (%) [3]: 79.2% | EC50 [3]: 22 nM | BRET β-Arrestin2 Low AT1R Expression Ymax (%) ([4]; Low AT1R Expression): 16.9% | EC50 [4, 6]: 35.3 nM

SMILES: CCc1nc2c(C)cc(C)nc2n1Cc1ccc(-c2cc(-c3ccccc3F)ccc2-c2nn[nH]n2)cc1 [Example 19]
EC50 [1, 5]: 7.5 nM | DiscoveRx β-arrestin2 Ymax (%) [1, 5]: 57.9% | IP-1 Ymax (%) [2]: 12.2% | EC50 [2]: 27.4 nM | BRET β-Arrestin2 High AT1R Expression Ymax (%) [3]: 89.8% | EC50 [3]: 2.4 nM | BRET β-Arrestin2 Low AT1R Expression Ymax (%) ([4]; Low AT1R Expression): 73.7% | EC50 [4, 6]: 12.1 nM

SMILES: CCc1nc2c(C)cc(C)nc2n1Cc1ccc(-c2cc(-c3cccnc3OC)ccc2-c2nn[nH]n2)cc1 [Example 24, 2-ethyl-3-((5′-(2-methoxypyridin-3-yl)-2′-(2H-tetrazol-5-yl)-[1,1′-biphenyl]-4-yl)methyl)-5,7-dimethyl-3H-imidazo[4,5-b]pyridine]
EC50 [1, 5]: 13.4 nM | DiscoveRx β-arrestin2 Ymax (%) [1, 5]: 24.1% | IP-1 Ymax (%) [2]: 14.5% | EC50 [2]: 20.7 nM | BRET β-Arrestin2 High AT1R Expression Ymax (%) [3]: 73.1% | EC50 [3]: 13.5 nM | BRET β-Arrestin2 Low AT1R Expression Ymax (%) ([4]; Low AT1R Expression): 21.6% | EC50 [4, 6]: 13.9 nM

SMILES: CCc1nc2c(C)cc(C)nc2n1Cc1ccc(-c2cc(-c3cccc(OC)n3)ccc2-c2nn[nH]n2)cc1 [Example 29]
EC50 [1, 5]: 8.6 nM | DiscoveRx β-arrestin2 Ymax (%) [1, 5]: 29.8% | IP-1 Ymax (%) [2]: 12.1% | EC50 [2]: 38.7 nM | BRET β-Arrestin2 High AT1R Expression Ymax (%) [3]: 82.7% | EC50 [3]: 11.3 nM | BRET β-Arrestin2 Low AT1R Expression Ymax (%) ([4]; Low AT1R Expression): 42.2% | EC50 [4, 6]: 18.9 nM

SMILES: CCc1nc2c(C)cc(C)nc2n1Cc1ccc(-c2cc(-c3ccccc3)ccc2C(=O)O)cc1 [Example 31, 4″-((2-ethyl-5,7-dimethyl-3H-imidazo[4,5-b]pyridin-3-yl)methyl)-[1,1′:3′,1″-terphenyl]-4′-carboxylic acid]
EC50 [1, 5]: 33.9 nM | DiscoveRx β-arrestin2 Ymax (%) [1, 5]: 55.1% | IP-1 Ymax (%) [2]: 12.3% | EC50 [2]: 234 nM | BRET β-Arrestin2 High AT1R Expression Ymax (%) [3]: 85.5% | EC50 [3]: 58.2 nM | BRET β-Arrestin2 Low AT1R Expression Ymax (%) ([4]; Low AT1R Expression): 42.4% | EC50 [4, 6]: 84.7 nM

SMILES: CCCCC1=NC2(CCCC2)C(=O)N1Cc1ccc(-c2cc(-c3cncc(C)c3)ccc2-c2nn[nH]n2)cc1 [Example 129]
EC50 [1, 5]: 33.5 nM | DiscoveRx β-arrestin2 Ymax (%) [1, 5]: 12.9% | IP-1 Ymax (%) [2]: 2.0% | EC50 [2]: 119 nM | BRET β-Arrestin2 High AT1R Expression Ymax (%) [3]: 40.7% | EC50 [3]: 240 nM | EC50 [4, 6]: > 10000 nM

SMILES: CCCCC1=NC2(CCCC2)C(=O)N1Cc1ccc(-c2cc(-c3cccc(C)n3)ccc2-c2nn[nH]n2)cc1 [Example 138]
EC50 [1, 5]: 13.4 nM | DiscoveRx β-arrestin2 Ymax (%) [1, 5]: 27.9% | IP-1 Ymax (%) [2]: 6.3% | EC50 [2]: 54.1 nM | BRET β-Arrestin2 High AT1R Expression Ymax (%) [3]: 73.2% | EC50 [3]: 56.9 nM | EC50 [4, 6]: > 10000 nM

SMILES: CCc1nc2c(C)cc(C)nc2n1Cc1ccc(-c2cc(-c3cccc(C)c3)ccc2C(=O)O)cc1 [Example 182]
EC50 [1, 5]: 84.9 nM | DiscoveRx β-arrestin2 Ymax (%) [1, 5]: 74.2% | IP-1 Ymax (%) [2]: 6.6% | EC50 [2]: 132 nM | BRET β-Arrestin2 High AT1R Expression Ymax (%) [3]: 90.4% | EC50 [3]: 7 nM | EC50 [4, 7]: 26.3 nM

SMILES: CCc1nc2c(C)cc(C)nc2n1Cc1ccc(-c2cc(C(=O)c3ccccc3)ccc2-c2nnn[nH]2)cc1 [Example 210, (4′-((2-Ethyl-5,7-dimethyl-3H-imidazo[4,5-b]pyridin-3-yl)methyl)-6-(1H-tetrazol-5-yl)-[1,1′-biphenyl]-3-yl)(phenyl)methanone]
EC50 [1, 5]: 8.6 nM | DiscoveRx β-arrestin2 Ymax (%) [1, 5]: 48.4% | IP-1 Ymax (%) [2]: 14.8% | EC50 [2]: 82.7 nM | BRET β-Arrestin2 High AT1R Expression Ymax (%) [3]: 88.2% | EC50 [3]: 9 nM | EC50 [4, 7]: 28.4 nM

EC50 [1, 5]: 35.2 nM | DiscoveRx β-arrestin2 Ymax (%) [1, 5]: 21.6% | IP-1 Ymax (%) [2]: 6.9% | EC50 [2]: 117 nM | EC50 [4, 7]: 33.2 nM
SMILES: CCc1nc2c(C)cc(C)nc2n1Cc1ccc(-c2cc(-n3ccc(C(F)(F)F)n3)ccc2-c2nnn[nH]2)cc1 [Example 219]

SMILES: CCc1nc2c(C)cc(C)nc2n1Cc1ccc(-c2cc(Oc3cccnc3)ccc2-c2noc(=O)[nH]2)cc1 [Example 259]
EC50 [1, 5]: 12.9 nM | DiscoveRx β-arrestin2 Ymax (%) [1, 5]: 80.6% | IP-1 Ymax (%) [2]: 9.9% | EC50 [2]: 21.1 nM | BRET β-Arrestin2 High AT1R Expression Ymax (%) [3]: 83.2% | EC50 [3]: 6.9 nM | EC50 [4, 7]: 38.8 nM

EC50 [1]: 253 nM | EC50 [4, 7]: 385 nM
SMILES: Cc1ccnc(-c2ccc(-c3nn[nH]n3)c(-c3ccc(Cn4nc(C)nc4C)cc3)c2)c1 [Example 458, 2-(4′-((3,5-Dimethyl-1H-1,2,4-triazol-1-yl)methyl)-6-(2H-tetrazol-5-yl)-[1,1′-biphenyl]-3-yl)-4-methylpyridine]

EC50 [1]: > 10000 nM | EC50 [4, 7]: 1240 nM
SMILES: Cc1cnn(-c2ccc(-c3nn[nH]n3)c(-c3ccc(Cn4cnnc4C)cc3)c2)c1 [Example 459, 5-(5-(4-Methyl-1H-pyrazol-1-yl)-4′-((3-methyl-4H-1,2,4-triazol-4-yl)methyl)-[1,1′-biphenyl]-2-yl)-2H-tetrazole]
